Results published in patent US12285418B1, “2-(5-aminopyridin-2-yl)-N-benzylacetamides and use thereof in the treatment of acute myeloid leukemia” (University of Jeddah, priority 2024, dated 2025).

Columns and labels:
Type in all cases: cell-based
[1] = test system: KG1a cells; test: Cell viability assay (CellTiter-Blue), KG1a; settings: Homo sapiens, KG-1a, 48 h incubation, mean±SD, read-out: IC50 against KG1a cells
Protocol: (§1) Cell viability was determined using the CellTiter®-Blue Cell Viability Assay kit (Promega, Madison, WI, USA) as previously described (Alkhatabi et al., 2022). Approximately 10^4 cells were counted, plated in a 96-well plate in the presence of test compounds ranging from 0.01 to 40 μM in quadruplicate, and incubated for 48 h at 37° C. in a humidified incubator. After the incubation period was completed, 20 μL of CellTiter®-Blue Cell Viability Assay reagent was added to each well and incubated for an additional 2 h for fluorescence development. Florescence was measured at Ex/Em 540/590 on a SpectraMax® i3 Multi-Mode microplate reader (Molecular Devices, LLC, San Jose, CA, USA) and plotted against the drug concentration to determine the IC50 of the test compounds. The IC50 was obtained by a nonlinear regression model using GraphPad Prism 10.1.1 (GraphPad Software, Inc., USA).
(§2) The half-maximal inhibitory concentration (IC50) of each drug was calculated using the GraphPad Prism software version 10.1.1. Flow cytometric data were analyzed using Diva software provided with the BD FACSCanto II Clinical Flow Cytometry System (BD Biosciences, USA). Student's paired t-test and Two-way ANOVA were used to compare data points. Data are presented as mean+SD, and at least three independent experiments were performed. […]

[2] = test system: MV4-11 cells; test: Cell viability assay (CellTiter-Blue), MV4-11; settings: Homo sapiens, 48 h incubation, mean±SD, read-out: IC50 against MV4-11 cells
Protocol: as §1, §2

[3] = test system: HL60 cells; test: Cell viability assay (CellTiter-Blue), HL60; settings: Homo sapiens, HL-60, 48 h incubation, mean±SD, read-out: IC50 against HL60 cells
Protocol: as §1, §2

[4] = test system: K562 cells; test: Cell viability assay (CellTiter-Blue), K562; settings: Homo sapiens, 48 h incubation, mean±SD, read-out: IC50 against K562 cells
Protocol: as §1, §2

| IC50 [2] [µM] | IC50 [3] [µM] | IC50 [4] [µM] | SMILES | IC50 [1] [µM] |
| --- | --- | --- | --- | --- |
| > 10 | > 10 | > 10 | O=C(Cc1ccc(/N=C2\OC(=O)c3ccccc32)cn1)NCc1ccccc1 [Compound II, (Z)-N-benzyl-2-(5-((3-oxoisobenzofuran-1 (3H)-ylidene)amino)pyridin-2-yl) acetamide] | > 10 |
| > 10 | > 10 | > 10 | O=C(Cc1ccc(NC(=O)c2ccccc2O)cn1)NCc1ccccc1 [Compound III, N-(6-(2-(Benzylamino)-2-oxoethyl)pyridin-3-yl)-2-hydroxybenzamide] | > 10 |
